Experimental data taken from US12419875B2, “Use of Axitinib and analogs thereof in preparing blood-brain barrier permeability regulator” (ZHEJIANG UNIVERSITY, priority 2018, dated 2025).

Columns and labels:
[1] = test system: model of Parkinson's disease; assay: Movement time within 2 minutes, model of Parkinson's disease; assay type: in vivo, C57/BL6 mice; settings: FIG. 28
Protocol: After the treatment was accomplished, movement time within 2 minutes (walking, lifting of both forelimbs, washing face, hair grooming and the like) was recorded for each of the test groups (n=5).
After the Axitinib treatment and the levodopa treatment was accomplished, movement time within 2 minutes (walking, lifting of both forelimbs, washing face, hair grooming and the like) was recorded for each of the test groups.

[2] = test system: pathological blood-brain barrier (bEnd.3 cells with tumor cell culture); assay: Tumor cell culture co-incubated with bEnd.3 cells (U87MG removed), cell transmembrane resistance; assay type: cell-based; settings: tumor cell culture kept, 10 μM, 24 hours, FIG. 15
Protocol: FIG. 15: Co-incubation of a tumor cell culture and bEnd.3 cells in vitro, regulation of blood-brain barrier permeability by Axitinib and an analog thereof, and determination of a cell transmembrane resistance. A Transwell model of co-incubation of brain microvascular endothelial cells bEnd.3 and glioma cells U87 MG simulates a pathological blood-brain barrier. Once a pathological blood-brain barrier model was formed, U87MG glioma cells in the outer chamber of Transwell were removed, while the tumor cell cultures were remained. Axitinib (10 μM) and an Axitinib analog of phosphatidylinositol kinase (PI3K) inhibitor LY294002 (10 μM) were added to the Transwell chamber. After 24 hours, cell transmembrane resistance was detected by a cell resistance meter. A physiological blood-brain barrier simulated by a Transwell model of brain microvascular endothelial cell bEnd.3 was used as a positive control (n=5).
The physiological blood-brain barrier and the pathological blood-brain barrier as constructed in Method 1 and Method 2 in the Example 1 were used as models, respectively. Once a pathological blood-brain barrier model was formed, U87MG glioma cells in the outer chamber of Transwell were removed, while the tumor cell cultures were remained. […] Cell transmembrane resistance was detected by a cell resistance meter.

[3] = test system: Claudin-5; assay: Pathological blood-brain barrier Transwell model (bEnd.3 co-incubated with U87 MG), Claudin-5 immunofluorescence; assay type: cell-based; settings: bEnd.3/U87 MG co-incubation, 24 hours; FIG. 8
Protocol: A transwell model of co-incubation of brain microvascular endothelial cells bEnd.3 and glioma cells U87 MG simulates a pathological blood-brain barrier. Axitinib was allowed to act on the Transwell chamber. After 24 hours, immunofluorescent staining was performed on bEnd.3 cells on the Transwell chamber membrane. A physiological blood-brain barrier simulated by a Transwell model of brain microvascular endothelial cell bEnd.3 was used as a positive control group. […] Panel B is the result of fluorescence semi-quantitative analysis of Claudin-5 expression by Image J (n=3).
Axitinib was added to the Transwell chamber. After the drug was allowed to act for 24 hours, the Transwell cell with bEnd.3 cells grown was transferred to another 12-well plate, washed with PBS for three times, fixed with 4% formaldehyde, and blocked with 10% bovine serum albumin for 30 minutes. Thereafter, Claudin-5 primary antibody was added and incubated at 4° C. overnight, and finally was incubated with fluorescently-labeled secondary antibody for 1 hour. The nucleus was counterstained with DAPI.

[4] = test system: tyrosine hydroxylase; assay: Striatum tyrosine hydroxylase immunohistochemistry, model of Parkinson's disease; settings: FIG. 29
[5] = test system: Claudin-5; assay: VEGF-stimulated physiological blood-brain barrier Transwell model, Claudin-5 immunofluorescence; assay type: cell-based; settings: bEnd.3 Transwell, exogenous VEGF plus Axitinib 0, 2, 4 μg/mL, 24 hours; FIG. 7
Protocol: A Transwell model of brain microvascular endothelial cells bEnd.3 simulates a physiological blood-brain barrier. Transwell chambers were stimulated with the added exogenous vascular endothelial growth factor (VEGF), and further with Axitinib at different concentrations (0, 2 μg/mL, 4 μg/mL) synergistically for 24 hours. Thereafter, Immunofluorescence staining was performed on bEnd.3 cells on the Transwell chamber membrane. […] Panel B is the result of fluorescence semi-quantitative analysis of Claudin-5 expression by Image J (n=3).
Brain microvascular endothelial cells bEnd.3 were used as model cells of a blood-brain barrier. 0.5 mL suspension of well-grown bEnd.3 cells was inoculated in the chamber of a 12-well Transwell plate with a pore size of 0.4 μm at a cell density of 1×10^5/well. 1.5 mL of fresh culture medium was supplemented in the outer chamber. The culture medium was refreshed every other day. Incubation was continued for 15 days at 37° C. and 5% CO2. When the cell transmembrane resistance value was greater than 150 ohm·cm^2 (Ω·cm^2), a cell model of physiological blood-brain barrier was obtained for evaluation.
The physiological blood-brain barrier as constructed by Method 1 in the Example 1 was used as a model. Exogenous vascular endothelial cell growth factor (VEGF) and Axitinib at different concentrations were added to the Transwell chamber. […]

[6] = Axitinib 10 mg/kg 7 days vs levodopa 20 mg/kg 10 days

CNC(=O)c1ccccc1Sc1ccc2c(/C=C/c3ccccn3)n[nH]c2c1 [Axitinib, N-methyl-2-((3-((1E)-2-(pyridine-2-yl)ethenyl)-1H-indazol-6-yl)sulfanyl)benzamide]
Dyskinesia (movement time), Axitinib compared with levodopa [1, 6]: no difference in their efficacy
Dyskinesia (movement time within 2 minutes) ([1]; Axitinib 10 mg/kg 7 days, levodopa 20 mg/kg 10 days, vs Parkinson's control): significantly alleviated
Cell transmembrane resistance (blood-brain barrier function) [2]: the blood-brain barrier function is recovered from a pathologically impaired state to a state close to a physiological barrier
Expression of tight junction protein Claudin-5 [3]: reduce down-regulation of expression of the blood-brain barrier tight junction protein of Claudin-5
Expression of striatum tyrosine hydroxylase, compared with the levodopa treatment group [4, 6]: superior to that in the levodopa treatment group
Expression of striatum tyrosine hydroxylase ([4]; Axitinib 10 mg/kg 7 days, levodopa 20 mg/kg 10 days): significantly up-regulated
Expression of tight junction protein Claudin-5 [5]: reduce the degree to which Claudin-5 is down-regulated in a dose-dependent manner
